US4839374A, “4-((Bicyclic heterocyclyl)-methyl and -hetero)-piperidines” (Janssen Pharmaceutica, N.V., priority 1987, dated 1989)
Where two headings read alike, the source gives them in different places.

Key:
effects of serotonin = assay: Antagonistic activity on the effects of serotonin in the gastric lesion test (lesions induced by compound 48/80); format: in vivo, rats of a Wistar inbred strain; conditions: for ED50: Rattus norvegicus, po, read-out: gastric lesion test ED50
Protocol: Antagonistic activity on the effects of serotonin in the gastric lesion test.
The shock, followed by dead, can be avoided if the rats are pretreated with a classical H 1 antagonist.
Male rats of a Wistar inbred strain, weighing 220-250 g, were starved overnight, water being available ad libitum. The test compounds were administered orally as a solution or as a suspension in aqueous medium. A control rat and a "blank" rat received the test compound. One hour later 5-[4-(diphenylmethyl)1-piperazinylmethyl]-1-methyl-1H-benzimidazole-2-methanol was administered subcutaneously to all rats at the dose of 2.5 mg/kg. […] Four hours after the intravenous injection of compound 48/80, the rats were decapitated and the stomachs were removed. Subsequently the stomachs were inspected for distension and contents (blood, fluid, food) and thoroughly rinsed. The macroscopic lesions were scored from 0 to +++, 0 corresponding to complete absence of visible lesions and the highest score corresponding to reddish rough patches covering more than half the glandular area.
The second column of tables 1-4 show for a number of compounds of formula (I) the doses (in mg/kg body weight) at which the distension of the stomach as well as the lesions in the glandular area of the stomach are completely absent in 50% of the test rats (ED50 -value).

[1] = system: compound 48/80-induced lethality; assay: Protection of rats from compound 48/80-induced lethality; format: in vivo, rats of an inbred Wistar strain; conditions: protection of 50% of animals, survival after 4 hours; for ED50: Rattus norvegicus, 4 h, read-out: Compound 48/80 lethality test in rats ED50, s.c. or p.o. 1 h before compound 48/80 0.5 mg/kg i.v.
Procedure, shortened: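 Male inbred Wistar rats (240-260 g), starved overnight, dosed subcutaneously or orally with compound or 0.9% NaCl before compound 48/80 challenge. Survival at 4 hours counted as protection. ED50 in mg/kg is the dose protecting 50% of animals from lethality.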

[2] = compound 48/80 1 mg/kg i.v., distension and lesions of stomach completely absent in 50% of rats

Structure (SMILES) | ED50 (effects of serotonin; [2]) [mg/kg] | ED50 [1] [mg/kg] | ED50 (effects of serotonin) [mg/kg] | gastric lesion test ED50 (effects of serotonin; oral, compound 48/80 1 mg/kg i.v., distension and lesions of stomach completely absent in 50% of rats, 1 mg/kg) [mg/kg body weight] | Compound 48/80 lethality test in rats ED50 ([1]; s.c. or p.o. 1 h before compound 48/80 0.5 mg/kg i.v., 0.5 mg/kg, 240 min) [mg/kg body weight]
CC(C)NC(=O)CN1CCC(Cc2nc3cccnc3n2Cc2ccc(F)cc2)CC1 [Compound 128] | 0.63 | 0.16 | – | – | –
Fc1ccc(Cn2c(CC3CCN(CCN4CCOCC4)CC3)nc3ccccc32)cc1 [Compound 131] | 0.16 | 0.02 | – | – | –
CCOCCN1CCC(Cc2nc3ccccc3n2Cc2ccc(F)cc2)CC1 [Compound 133] | 0.16 | 0.02 | – | – | –
CC(C)NC(=O)CCN1CCC(Cc2nc3cccnc3n2Cc2ccc(F)cc2)CC1 [Compound 143, 4-[[3-[(4-fluorophenyl)methyl]-3H-imidazo[4,5-b]pyridin-2-yl]methyl]-N-(1-methylethyl)-1-piperidinepropanamide] | 0.63 | 0.04 | – | – | –
CC(C)NC(=O)CCN1CCC(Cc2nc3ccccc3n2Cc2ccc(F)cc2)CC1 [Compound 145, 4-[[1-[(4-fluorophenyl)methyl]-1H-benzimidazol-2-yl]methyl]-N-(1-methylethyl)-1-piperidinepropanamide] | 0.16 | 0.02 | – | – | –
Cc1nc2scc(C)n2c(=O)c1CCN1CCC(Cc2nc3cccnc3n2Cc2ccco2)CC1 [Compound 151, 6-[2-[4-[[3-(2-furanylmethyl)-3H-imidazo[4,5-b]pyridin-2-yl]methyl]-1-piperidinyl]ethyl]-3,7-dimethyl-5H-thiazolo[3,2-a]pyrimidin-5-one] | 0.16 | 0.02 | – | – | –
O=c1cc[nH]c(=O)n1CCN1CCC(Cc2nc3ccccc3n2Cc2ccc(F)cc2)CC1 [Compound 164] | 0.02 | 0.02 | – | – | –
Cc1nc2n(c(=O)c1CCN1CCC(Cc3nc4cccnc4n3Cc3ccco3)CC1)CCS2 [Compound 168] | 0.63 | 0.04 | – | – | –
Cc1nc2ccccn2c(=O)c1CCN1CCC(Cc2nc3cccnc3n2Cc2ccc(F)cc2)CC1 [Compound 177] | 0.31 | 0.04 | – | – | –
Cc1nc2ccccn2c(=O)c1CCN1CCC(Cc2nc3cccnc3n2Cc2ccco2)CC1 [Compound 180] | 0.31 | 0.01 | – | – | –
Cc1ncsc1CCN1CCC(Cc2nc3ccccc3n2Cc2ccc(F)cc2)CC1 [Compound 182] | 0.63 | 0.04 | – | – | –
Fc1ccc(Cn2c(CC3CCN(Cc4cn5ccccc5n4)CC3)nc3ccccc32)cc1 [Compound 184] | 0.63 | 0.02 | – | – | –
O=c1[nH]c2ccccc2c(=O)n1CCN1CCC(Cc2nc3ccccc3n2Cc2cccs2)CC1 [Compound 186] | 0.31 | 0.04 | – | – | –
O=c1[nH]c2ccccc2c(=O)n1CCN1CCC(Cc2nc3ccccc3n2Cc2cscn2)CC1 [Compound 187] | 0.31 | 0.04 | – | – | –
COc1ccc(CCN2CCC(Cc3nc4cccnc4n3Cc3ccco3)CC2)cc1 [Compound 189] | 0.63 | 0.02 | – | – | –
COc1ccc(CCN2CCC(Cc3nc4cccnc4n3Cc3ccccc3)CC2)cc1 [Compound 198] | – | 0.04 | 0.08 | – | –
O=c1[nH]c2ccccc2n1CCCN1CCC(Cc2nc3ccccc3n2Cc2ccc(F)cc2)CC1 [Compound 207] | – | 0.08 | 0.08 | – | –
O=c1[nH]c2ccccc2c(=O)n1CCN1CCC(Cc2nc3ccccc3n2Cc2ccco2)CC1 [Compound 208] | – | 0.04 | 0.08 | – | –
O=c1[nH]c2ccccc2c(=O)n1CCN1CCC(Cc2nc3ccccc3n2Cc2ccc(F)cc2)CC1 [Compound 209] | 0.63 | 0.08 | – | – | –
Cc1nc2ccccn2c(=O)c1CCN1CCC(Cc2nc3ccccc3n2Cc2ccc(F)cc2)CC1 [Compound 214] | – | 0.08 | 0.04 | – | –
Cc1nc2ccccn2c(=O)c1CCN1CCC(Cc2nc3ccccc3n2Cc2ccco2)CC1 [Compound 218] | – | 0.04 | 0.04 | – | –
Cc1nc2scc(C)n2c(=O)c1CCN1CCC(Cc2nc3ccccc3n2Cc2ccc(F)cc2)CC1 [Compound 219] | 0.63 | 0.08 | – | – | –
O=c1[nH]c2ccccc2c(=O)n1CCN1CCC(Cc2nc3cccnc3n2Cc2ccc(F)cc2)CC1 [Compound 224] | – | 0.04 | 0.08 | – | –

Structure (SMILES) | ED50 (effects of serotonin; [2]) [mg/kg] | ED50 [1] [mg/kg] | ED50 (effects of serotonin) [mg/kg] | gastric lesion test ED50 (effects of serotonin; oral, compound 48/80 1 mg/kg i.v., distension and lesions of stomach completely absent in 50% of rats, 1 mg/kg) [mg/kg body weight] | Compound 48/80 lethality test in rats ED50 ([1]; s.c. or p.o. 1 h before compound 48/80 0.5 mg/kg i.v., 0.5 mg/kg, 240 min) [mg/kg body weight]
Cc1nc2n(c(=O)c1CCN1CCC(Cc3nc4ccccc4n3Cc3ccco3)CC1)CCCC2 [Compound 226] | – | 0.08 | 0.04 | – | –
O=C(CCCN1CCC(Cc2nc3cccnc3n2Cc2ccc(F)cc2)CC1)c1ccc(F)cc1 [Compound 228] | – | – | – | 0.01 | 0.04
COc1ccc(CCN2CCC(Cc3nc4ccccc4n3Cc3ccco3)CC2)cc1 [Compound 229] | 0.63 | 0.04 | – | – | –
COc1ccc(CCN2CCC(Cc3nc4cccnc4n3Cc3ccc(F)cc3)CC2)cc1 [Compound 236] | 0.63 | 0.08 | – | – | –
COc1ccc(CCN2CCC(Cc3nc4cccnc4n3Cc3cccs3)CC2)cc1 [Compound 238] | 0.63 | 0.08 | – | – | –
Cc1nc2ccccn2c(=O)c1CCN1CCC(Sc2nc3ccccc3n2Cc2ccc(F)cc2)CC1 [Compound 244, 3-[2-[4-[[1-[(4-fluorophenyl)methyl]-1H-benzimidazol-2-yl]thio]-1-piperidinyl]-ethyl]-2-methyl-4H-pyrido[1,2-a]pyrimidin-4-one] | 0.31 | 0.16 | – | – | –
COc1ccc(CCN2CCC(Cc3nc4ccccc4n3Cc3ccoc3)CC2)cc1 [Compound 260] | 0.63 | 0.01 | – | – | –
Cc1nc2n(c(=O)c1CCN1CCC(Cc3nc4ccccc4n3Cc3cscn3)CC1)CCCC2 [Compound 262] | 0.16 | 0.04 | – | – | –
Cc1nc2n(c(=O)c1CCN1CCC(Cc3nc4ccccc4n3Cc3cccs3)CC1)CCCC2 [Compound 263] | – | 0.04 | 0.04 | – | –
Cc1nc2n(c(=O)c1CCN1CCC(Oc3nc4ccccc4n3Cc3ccc(F)cc3)CC1)CCCC2 [Compound 264] | 0.63 | 0.04 | – | – | –
Cc1nc2ccccn2c(=O)c1CCN1CCC(Cc2nc3ncccc3n2Cc2ccc(F)cc2)CC1 [Compound 272] | 0.63 | 0.08 | – | – | –
COc1ccc(CCN2CCC(Cc3nc4ccc(OC)cc4n3Cc3ccc(F)cc3)CC2)cc1 [Compound 273] | 0.31 | 0.01 | – | – | –
COc1ccc(CCN2CCC(Cc3nc4ccc(O)cc4n3Cc3ccc(F)cc3)CC2)cc1 [Compound 276] | 0.31 | 0.04 | – | – | –
N#CCN1CCC(Cc2nc3ccccc3n2Cc2ccc(F)cc2)CC1 [Compound 283] | 0.63 | 0.04 | – | – | –
Fc1ccc(Cn2c(CC3CCN(CCNc4nc5cccnc5s4)CC3)nc3ccccc32)cc1 [Compound 330, N-[2-[4-[[1-[(4-fluorophenyl)methyl]-1H-benzimidazol-2-yl]methyl]-1-piperidinyl]ethyl]thiazolo[5,4-b]pyridin-2-amine] | 0.16 | 0.08 | – | – | –
O=c1cc[nH]c(NCCN2CCC(Cc3nc4ccccc4n3Cc3ccc(F)cc3)CC2)n1 [Compound 331, 2-[[2-[4-[[1-[(4-fluorophenyl)methyl]-1H-benzimidazol-2-yl]methyl]-1-piperidinyl]ethyl]amino]-4(1H)-pyrimidinone] | 0.02 | 0.04 | – | – | –
Fc1ccc(Cn2c(CC3CCN(CCNc4nc5cnccc5s4)CC3)nc3ccccc32)cc1 [Compound 332, N-[2-[4-[[1-[(4-fluorophenyl)methyl]-1H-benzimidazol-2-yl]methyl]-1-piperidinyl]ethyl]thiazolo[4,5-c]pyridin-2-amine] | – | 0.08 | 0.08 | – | –
c1cnc(NCCN2CCC(Cc3nc4ccccc4n3Cc3ccco3)CC2)nc1 [Compound 334] | 0.31 | 0.005 | – | – | –
c1coc(Cn2c(CC3CCN(CCNc4nccs4)CC3)nc3ccccc32)c1 [Compound 335] | 0.16 | 0.02 | – | – | –
c1cnc(NCCN2CCC(Cc3nc4ccccc4n3Cc3cccs3)CC2)nc1 [Compound 336] | – | 0.01 | 0.08 | – | –
c1cnc(NCCN2CCC(Cc3nc4cccnc4n3Cc3cccs3)CC2)nc1 [Compound 342] | 0.16 | 0.02 | – | – | –
Fc1ccc(Cn2c(CC3CCN(C4CCN(c5ncccn5)CC4)CC3)nc3ccccc32)cc1 [Compound 347, 4-[[1-[(4-fluorophenyl)methyl]-1H-benzimidazol-2-yl]methyl]-1'-(2-pyrimidinyl)-[1,4'-bipiperidine]] | 0.63 | 0.08 | – | – | –
Fc1ccc(Cn2c(CC3CCN(CCNc4ncccn4)CC3)nc3ncccc32)cc1 [Compound 348, N-[2-[4[[1-[(4-fluorophenyl)methyl]-1H-imidazo[4,5-b]pyridin-2-yl]methyl]-1-piperidinyl]ethyl]-2-pyrimidinamine] | – | 0.04 | 0.04 | – | –
